Laboratory results from PMC3791872 (Bioscience Reports, 2013).
Read-outs that look alike come from different tables or passages of the source.

What was measured:
[1] = biological target: T1, Mcm467 (Saccharomyces cerevisiae, UniProt P30665+P38132+P53091); experiment: Mcm467 helicase (DNA unwinding) assay; assay type: biochemical; details: DNA unwinding, 100 nM hexamer, inhibitor preincubation; […]; read-out: IC50 Mcm467
T1 construct: made in house; host or cells: baculovirus-infected insect cells
T1 sequence (P30665 whole entry): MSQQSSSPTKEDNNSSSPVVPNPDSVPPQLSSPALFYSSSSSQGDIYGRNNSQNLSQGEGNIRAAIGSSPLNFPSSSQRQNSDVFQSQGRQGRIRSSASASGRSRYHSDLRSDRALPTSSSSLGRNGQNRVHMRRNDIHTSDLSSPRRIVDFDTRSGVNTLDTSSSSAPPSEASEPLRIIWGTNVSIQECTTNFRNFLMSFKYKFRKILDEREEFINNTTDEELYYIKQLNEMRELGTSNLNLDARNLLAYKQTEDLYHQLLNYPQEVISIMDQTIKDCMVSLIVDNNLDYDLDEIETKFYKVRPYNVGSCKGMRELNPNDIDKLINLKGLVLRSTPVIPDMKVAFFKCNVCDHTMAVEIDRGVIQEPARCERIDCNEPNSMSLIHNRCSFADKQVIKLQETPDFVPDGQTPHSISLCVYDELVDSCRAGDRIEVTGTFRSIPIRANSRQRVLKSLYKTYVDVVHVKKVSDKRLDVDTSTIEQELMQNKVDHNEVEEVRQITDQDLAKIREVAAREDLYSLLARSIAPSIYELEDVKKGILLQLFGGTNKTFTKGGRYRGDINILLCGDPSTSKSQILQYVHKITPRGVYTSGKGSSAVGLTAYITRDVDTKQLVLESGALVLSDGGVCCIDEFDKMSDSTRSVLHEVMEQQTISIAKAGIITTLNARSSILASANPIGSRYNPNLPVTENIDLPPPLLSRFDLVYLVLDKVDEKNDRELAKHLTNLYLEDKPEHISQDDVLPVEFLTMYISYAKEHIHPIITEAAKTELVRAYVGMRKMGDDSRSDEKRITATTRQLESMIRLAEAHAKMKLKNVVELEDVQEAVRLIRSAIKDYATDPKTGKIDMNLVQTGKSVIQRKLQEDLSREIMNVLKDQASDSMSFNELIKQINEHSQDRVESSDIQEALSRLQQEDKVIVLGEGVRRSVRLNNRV
T1 sequence (P53091 whole entry): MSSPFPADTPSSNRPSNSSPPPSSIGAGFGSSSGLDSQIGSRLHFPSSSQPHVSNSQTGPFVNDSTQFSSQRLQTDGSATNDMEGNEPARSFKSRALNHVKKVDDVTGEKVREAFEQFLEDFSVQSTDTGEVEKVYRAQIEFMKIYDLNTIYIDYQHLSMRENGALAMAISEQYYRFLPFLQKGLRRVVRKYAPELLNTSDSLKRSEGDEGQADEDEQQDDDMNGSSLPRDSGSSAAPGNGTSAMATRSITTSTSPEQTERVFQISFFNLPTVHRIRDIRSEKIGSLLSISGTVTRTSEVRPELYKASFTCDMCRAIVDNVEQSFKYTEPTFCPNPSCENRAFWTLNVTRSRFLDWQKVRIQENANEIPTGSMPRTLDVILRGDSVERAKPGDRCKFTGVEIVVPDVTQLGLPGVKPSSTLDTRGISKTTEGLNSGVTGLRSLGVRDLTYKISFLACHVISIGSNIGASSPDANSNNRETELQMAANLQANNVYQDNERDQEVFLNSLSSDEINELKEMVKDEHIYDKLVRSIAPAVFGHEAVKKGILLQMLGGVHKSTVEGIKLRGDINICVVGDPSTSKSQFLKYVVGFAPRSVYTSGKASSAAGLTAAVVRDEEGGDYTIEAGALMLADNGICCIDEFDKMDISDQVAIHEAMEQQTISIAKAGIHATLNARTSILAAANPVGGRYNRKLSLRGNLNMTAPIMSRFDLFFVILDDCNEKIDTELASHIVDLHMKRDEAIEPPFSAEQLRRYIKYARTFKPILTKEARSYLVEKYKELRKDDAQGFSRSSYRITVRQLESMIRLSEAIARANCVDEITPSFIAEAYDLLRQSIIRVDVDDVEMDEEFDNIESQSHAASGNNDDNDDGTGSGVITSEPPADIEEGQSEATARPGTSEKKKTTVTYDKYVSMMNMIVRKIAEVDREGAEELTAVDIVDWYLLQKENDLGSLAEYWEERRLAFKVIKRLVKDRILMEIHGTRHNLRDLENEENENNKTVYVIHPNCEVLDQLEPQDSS
T1 sequence (P38132 whole entry): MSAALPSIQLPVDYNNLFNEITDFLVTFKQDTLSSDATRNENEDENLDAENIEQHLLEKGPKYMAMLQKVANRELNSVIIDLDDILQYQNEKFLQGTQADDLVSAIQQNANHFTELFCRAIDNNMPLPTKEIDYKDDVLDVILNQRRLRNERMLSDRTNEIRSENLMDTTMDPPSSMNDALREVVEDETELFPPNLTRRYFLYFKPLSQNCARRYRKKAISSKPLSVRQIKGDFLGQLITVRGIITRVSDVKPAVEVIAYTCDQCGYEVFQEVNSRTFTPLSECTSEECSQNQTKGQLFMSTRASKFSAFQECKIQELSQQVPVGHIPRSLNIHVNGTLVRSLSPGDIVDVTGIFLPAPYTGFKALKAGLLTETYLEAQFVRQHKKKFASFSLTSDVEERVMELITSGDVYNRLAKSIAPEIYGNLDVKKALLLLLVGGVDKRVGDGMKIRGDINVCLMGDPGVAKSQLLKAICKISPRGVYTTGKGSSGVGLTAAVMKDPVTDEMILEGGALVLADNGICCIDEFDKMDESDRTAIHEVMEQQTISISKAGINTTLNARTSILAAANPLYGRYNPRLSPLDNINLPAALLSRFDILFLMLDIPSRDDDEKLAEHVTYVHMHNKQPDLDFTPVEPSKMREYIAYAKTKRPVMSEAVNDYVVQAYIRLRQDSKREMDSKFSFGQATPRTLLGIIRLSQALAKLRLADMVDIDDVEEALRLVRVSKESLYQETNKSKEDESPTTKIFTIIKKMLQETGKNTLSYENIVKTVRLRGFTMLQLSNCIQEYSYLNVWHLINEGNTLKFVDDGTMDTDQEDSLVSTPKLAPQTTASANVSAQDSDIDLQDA

[2] = biological target: SV40 large TAg (T-antigen) (Simian virus 40, UniProt P03070); experiment: biochemical; design: species or system SV40 (simian virus 40); details: DNA unwinding
Sequence of SV40 large TAg (T-antigen) (P03070 whole entry, looked up): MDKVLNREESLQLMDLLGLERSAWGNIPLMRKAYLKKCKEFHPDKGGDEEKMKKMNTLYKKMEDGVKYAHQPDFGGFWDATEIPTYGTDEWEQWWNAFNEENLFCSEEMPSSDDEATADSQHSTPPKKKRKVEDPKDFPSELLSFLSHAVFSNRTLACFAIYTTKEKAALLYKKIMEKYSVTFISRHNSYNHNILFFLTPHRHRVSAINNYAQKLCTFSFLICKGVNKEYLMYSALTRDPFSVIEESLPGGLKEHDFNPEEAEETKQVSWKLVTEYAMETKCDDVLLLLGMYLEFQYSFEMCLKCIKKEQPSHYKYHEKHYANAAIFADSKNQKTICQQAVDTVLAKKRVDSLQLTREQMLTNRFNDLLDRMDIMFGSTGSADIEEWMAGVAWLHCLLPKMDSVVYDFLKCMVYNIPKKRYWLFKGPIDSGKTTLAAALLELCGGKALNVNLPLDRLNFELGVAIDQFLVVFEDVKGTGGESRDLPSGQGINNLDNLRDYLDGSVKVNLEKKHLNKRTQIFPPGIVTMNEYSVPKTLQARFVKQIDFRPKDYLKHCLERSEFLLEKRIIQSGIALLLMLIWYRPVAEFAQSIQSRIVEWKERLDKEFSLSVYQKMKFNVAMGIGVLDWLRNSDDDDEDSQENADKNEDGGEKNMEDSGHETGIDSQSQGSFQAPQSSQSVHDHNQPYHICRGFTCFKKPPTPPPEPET

[3] = test system: S. cerevisiae ∆erg6 (UPY675); experiment: Yeast growth inhibition, 96-well assay, ∆erg6 strain; assay type: cell-based, Saccharomyces cerevisiae
[4] = biological target: T2, SV40 large TAg (Simian virus 40, UniProt P03070); experiment: Steady-state ATP hydrolysis by TAg; assay type: biochemical, SV40 (simian virus 40); details: 1 mM compound, 100 nM hexamer
T2 construct: made in house
T2 sequence (P03070 whole entry): as the sequence (P03070 whole entry, looked up) above

[5] = test system: T3, Mcm2-7; experiment: ssDNA double filter-binding assay, Mcm2-7; design: species or system Saccharomyces cerevisiae; details: 1 mM compound, 150 nM helicase
T3 construct: made in house; host or cells: baculovirus-infected insect cells

[6] = biological target: T4, SsoMcm (Sulfolobus solfataricus Mcm protein) complex (Saccharolobus solfataricus, UniProt Q9UXG1); experiment: SsoMcm helicase assay; assay type: biochemical; details: 1 mM, 65°C, Figure S3
T4 sequence (Q9UXG1 1-686): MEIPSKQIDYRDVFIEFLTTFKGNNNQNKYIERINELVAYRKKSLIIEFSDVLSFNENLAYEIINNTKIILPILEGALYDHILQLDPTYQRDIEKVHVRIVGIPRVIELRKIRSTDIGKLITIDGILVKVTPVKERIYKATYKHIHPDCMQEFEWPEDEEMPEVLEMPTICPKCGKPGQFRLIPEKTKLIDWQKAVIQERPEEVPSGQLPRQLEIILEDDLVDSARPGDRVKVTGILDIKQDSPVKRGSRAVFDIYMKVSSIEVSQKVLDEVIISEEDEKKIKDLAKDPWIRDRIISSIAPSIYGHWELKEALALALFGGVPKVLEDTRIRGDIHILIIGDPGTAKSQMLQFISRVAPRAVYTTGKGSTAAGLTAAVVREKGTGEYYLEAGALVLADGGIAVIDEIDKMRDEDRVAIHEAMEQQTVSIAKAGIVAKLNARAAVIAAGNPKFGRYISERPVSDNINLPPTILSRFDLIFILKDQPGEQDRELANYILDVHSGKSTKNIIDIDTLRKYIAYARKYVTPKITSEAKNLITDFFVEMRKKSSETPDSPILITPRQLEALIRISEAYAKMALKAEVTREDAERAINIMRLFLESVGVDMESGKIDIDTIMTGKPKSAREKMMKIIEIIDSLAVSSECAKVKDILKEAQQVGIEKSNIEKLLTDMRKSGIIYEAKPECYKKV
Protocol: Helicase assays were performed essentially as described. Synthetic replication forks were prepared by annealing oligos 233 and 235 [IDT (Coralville), oligo 233 5′(T)40[…]; oligo 235 5′ […](T)40] and then filling in the recessed 3′-end with [α32P]dATP and unlabelled dNTPs using Klenow Fragment. Briefly, reactions ([…]) were performed in 1× helicase assay buffer [20 mM Tris/HCl (pH 7.5), 10 mM MgOAc, 20% (v/v) glycerol, 100 μM EDTA and 5 mM DTT (dithiothreitol)] and contained a final concentration of 1 nM fork substrate, 5 mM ATP, 40 mM creatine phosphate, […] creatine kinase, 33 μg/ml BSA. Reactions containing Mcm2-7 and Mcm467 were supplemented with 200 mM potassium glutamate. Reactions containing SsoMcm were incubated at 65°C, those containing T4 gp41 were incubated for 30 min at 37°C, and all other reactions were incubated at 37°C for 1 h. The products were separated by 10% (w/v) native PAGE, the resulting gels dried and the radioactivity quantified using a Fuji FLA-5100 phosphoimager. […] ATP was separated from ADP by PEI (polyethyleneimine) thin layer chromatography, and the ratio of ATP:ADP was quantified using a Fuji FLA-5100 phosphoimager. […] Protein–ssDNA binding was determined with a double filter-binding assay using an ssDNA probe (oligo 826, 5′[…]) that was 5′-radiolabelled using T4 polynucleotide kinase and [γ32P]ATP [16]. […]

`O=C(O)c1cn(C2CC2)c2cc(N3CCNCC3)c(F)cc2c1=O` [Ciprofloxacin, ciprofloxacin, reference compound] was tested, and the IC50 [1] was 1890 µM, the IC50 ([2]; 100 nM complex, read-out: IC50 TAg helicase activity) was 4000 µM and the IC50 ([2]; 100 nM hexamer, inhibitor preincubation, […], read-out: IC50 T-antigen) was 4010 µM. For the same molecule, the “growth response of ∆erg6 yeast” value ([3]; Figure 4A) was “demonstrable growth sensitivity”, the IC50 ([3]; Saccharomyces cerevisiae, ∆erg6 strain, growth over 24 h, value (95% CI), read-out: IC50 Yeast) was 590 µM and the “effect on ATP hydrolysis of TAg” value [4] was “only modest effects”. The “effect on ssDNA binding of Mcm2-7” value [5] was “only modest effects” and the “inhibition of SsoMcm helicase” value [6] was “none of the tested helicases were substantially inhibited”.
